Source: patent US5639899A, “Prostaglandin E1 analogues” (Taisho Pharmaceutical Co., Ltd., priority 1991, dated 1997)

Experiments:
Rabbit Blood Platelet = Rabbit Blood Platelet Aggregation Inhibition Test; format: cell-based, rabbit (New Zealand white strain); settings: Oryctolagus cuniculus, rabbit PRP, ADP 5 μM, 37° C., mean value
Method: Groups of four New Zealand white strain rabbits, each weighing 2.5 to 4.0 kg, were used for the test. […] The collected blood was Centrifuged at 1100 rpm for 15 minutes to give platelet rich plasma (PRP) as a supernatant. […] 194, page 927 (1962)]. That is, 1 μl of the test drug dissolved in ethanol at the desired concentration was added to 275 μl of PRP, and the mixture was stirred at 1000 rpm at 37° C.
The aggregation inhibition rate was calculated on the basis of the aggregation obtained by using ethanol in place of the test drug solution, and the aggregation inhibition activity was expressed as IC50 value which was determined from the dose response curve.
Results are shown in Table 2 wherein the compound number is as defined in the examples described hereinafter, and the IC50 value is expressed as the mean value.

[1] = test system: Guinea-pig Blood Platelet; assay: Guinea-pig Blood Platelet Aggregation Inhibition Test (oral administration, aggregation measured in PRP); format: in vivo, guinea-pig (male Hartley strain); settings: 50 μg/kg
From the text: The effects of the present invention are illustrated in more detail by the following experiments. Experiment 1 [Guinea-pig Blood Platelet Aggregation Inhibition Test]
194, page 927 (1962)]. […] [formula]
In the table are recited data of the compound obtained by converting the triple bond between the 13- and 14-positions of Compound 9 of Example 23 into a double bond as a comparative compound (limaprost) [Tsuboi et al, Arch. Intern. Pharmacodyn. Ther., vol. 247, page 89 (1980)].

[2] = Blood Pressure Lowering Test in Anesthetized Dogs; format: in vivo, dog (male mongrel); settings: intravenous
Method: Male mongrel dogs, weighing 13 kg, were anesthetized by intravenous administration of 30 mg/kg of sodium pentobarbital. A cannula inserted into the left femoral […] was attached to a blood pressure transducer to measure blood pressure. A solution of the test drug in ethanol, if necessary, was diluted with ethanol. 10 μl of the solution was administered through the vein via a cannula inserted into the left anterior limb vein. The blood pressure lowering rate by the test drug was calculated by the following formula: [formula]

IC50 (Rabbit Blood Platelet) [nM] | SMILES | Aggregation Inhibition Rate, ADP Aggregation, 2 hours after administration ([1]; ADP 3 μM) [%] | Aggregation Inhibition Rate, Collagen Aggregation, 2 hours after administration ([1]; collagen 3 μg/ml) [%] | other results
5.1 | CCCC[C@H](C)C[C@H](O)C#C[C@H]1[C@H](O)CC(=O)[C@@H]1CCCCC#CC(=O)O [Compound 12, (17S)-17,20-Dimethyl-2,2,3,3,13,14-hexadehydro-PGE1] |  |  | 
1.7 | CCC#CCC(C)[C@H](O)C#C[C@H]1[C@H](O)CC(=O)[C@@H]1CCCC/C=C/C(=O)OC (stereo partly drawn) [Compound 2, (2E,16RS)-16,20-Dimethyl-2,3,13,14,18,18,19,19-octadehydro-PGE1 Methyl Ester] |  |  | 
 | CCCCOC(=O)C#CCCCC[C@H]1C(=O)C[C@@H](O)[C@@H]1C#C[C@@H](O)C[C@@H](C)CCCC [Compound 6, (17S)-17,20-Dimethyl-2,2,3,3,13,14-hexadehydro-PGE1 n-butyl Ester] | 22.8 | 58.2 | 
0.74 | CCCC[C@@H](C)C[C@H](O)C#C[C@H]1[C@H](O)CC(=O)[C@@H]1CCCCC#CC(=O)OC [Compound 8, (17R)-17,20-Dimethyl-2,2,3,3,13,14-hexadehydro-PGE1 Methyl Ester] |  |  | 
1.1 | CCC#CCC(C)[C@H](O)C#C[C@H]1[C@H](O)CC(=O)[C@@H]1CCCC/C=C/C(=O)O (stereo partly drawn) [Compound 10, (2E,16RS)-16,20-Dimethyl-2,3,13,14,18,18,19,19-octadehydro-PGE1] |  |  | 
3 | CCCC[C@H](C)C[C@H](O)C#C[C@H]1[C@H](O)CC(=O)[C@@H]1CCCCC#CC(=O)OC [Compound 4, (71S)-17,20-Dimethyl-2,2,3,3,13,14-hexadehydro-PGE1 Methyl Ester] |  |  | 
 | CCCC[C@H](C)C[C@H](O)C#C[C@H]1[C@H](O)CC(=O)[C@@H]1CCCC/C=C/C(=O)OC [Compound 1, (2E,17S)-17,20-Dimethyl-2,3,13,14-tetradehydro-PGE1 Methyl Ester] | 9.8 | 25.7 | blood pressure lowering rate ([2]; 0.03 μg/kg): 10.1%
2.7 | CCCCCC(C)C[C@H](O)C#C[C@H]1[C@H](O)CC(=O)[C@@H]1CCCC/C=C/C(=O)O (stereo partly drawn) [Compound 13, (2E,17RS)-17-Methyl-20-ethyl-2,3,13,14-tetradehydro-PGE1] |  |  | 
0.37 | CCCC[C@@H](C)C[C@H](O)C#C[C@H]1[C@H](O)CC(=O)[C@@H]1CCCCC#CC(=O)O [Compound 16, (17R)-17,20-Dimethyl-2,2,3,3,13,14-hexadehydro-PGE1] |  |  | 
26 | CCCCC[C@H](O)/C=C/[C@H]1[C@H](O)CC(=O)[C@@H]1CCCCCCC(=O)O [PGE1] |  |  | blood pressure lowering rate ([2]; 1 μg/kg): 13.9%; blood pressure lowering rate ([2]; 3 μg/kg): 23.7%
1.1 | COC(=O)C#CCCCC[C@H]1C(=O)C[C@@H](O)[C@@H]1C#C[C@@H](O)CC(C)CCC=C(C)C (stereo partly drawn) [Compound 7, (17RS)-20-Nor-17-methyl-19-(2'-methylprop-1'-enyl)-2,2,3,3,13,14-hexadehydro-PGE1 Methyl Ester] |  |  | 
6.3 | O=C(O)/C=C/CCCC[C@H]1C(=O)C[C@@H](O)[C@@H]1C#C[C@@H](O)C1CCCCC1 [Compound 11, (2E)-16,17,18,19,20-Pentanor-15-cyclohexyl-2,3,13,14-tetradehydro-PGE1] |  |  | 
5.1 | CCCC[C@H](C)C[C@H](O)C#C[C@H]1[C@H](O)CC(=O)[C@@H]1CCCCCC/C=C/C(=O)O [Compound 15, (2E,17S)-2a,2b-Dihomo-17,20-dimethyl-2,2a,13,14-tetradehydro-PGE1] |  |  | 
6 | COC(=O)/C=C/CCCC[C@H]1C(=O)C[C@@H](O)[C@@H]1C#C[C@@H](O)C1CCCCC1 [Compound 3, (2E)-16,17,18,19,20-Pentanor-15-cyclohexyl-2,3,13,14-tetradehydro-PGE1Methyl Ester] |  |  | blood pressure lowering rate ([2]; 0.03 μg/kg): 11.5%

SMILES | IC50 (Rabbit Blood Platelet) [nM] | Aggregation Inhibition Rate, ADP Aggregation, 2 hours after administration ([1]; ADP 3 μM) [%] | Aggregation Inhibition Rate, Collagen Aggregation, 2 hours after administration ([1]; collagen 3 μg/ml) [%] | other results
CCCC[C@@H](C)C[C@H](O)C#C[C@H]1[C@H](O)CC(=O)[C@@H]1CCCC/C=C/C(=O)O [Compound 14, (2E,17R)-17,20-Dimethyl-2,3,13,14-tetradehydro-PGE1] | 1.3 | 52.5 | 100.0 | Aggregation Inhibition Rate, ADP Aggregation, 8 hours after administration ([1]; 8 hours after administration, ADP 3 μM): 31.8%; Aggregation Inhibition Rate, Collagen Aggregation, 8 hours after administration ([1]; 8 hours after administration, collagen 3 μg/ml): 61.0%
CCCC[C@H](C)C[C@H](O)C#C[C@H]1[C@H](O)CC(=O)[C@@H]1CCCC/C=C/C(=O)O [Compound 9, (2E,17S)-17,20-Dimethyl-2,3,13,14-tetradehydro-PGE1] | 2.6 | 26.4 | 28.4 | blood pressure lowering rate ([2]; 0.03 μg/kg): 23.7%
CCCC[C@H](C)C[C@H](O)/C=C/[C@H]1[C@H](O)CC(=O)[C@@H]1CCCC/C=C/C(=O)O [limaprost, reference compound] | 6.3 | 3.4 | 16.2 | blood pressure lowering rate ([2]; 0.5 μg/kg): 13.9%; blood pressure lowering rate ([2]; 1 μg/kg): 23.8%
CCCC[C@@H](C)C[C@H](O)C#C[C@H]1[C@H](O)CC(=O)[C@@H]1CCCC/C=C/C(=O)OC [Compound 5, (2E,17R)-17,20-Dimethyl-2,3,13,14-tetradehydro-PGE1 Methyl Ester] | 1.4 | 25.9 | 1.6 | 
